Literature values, collected in patent US8636973B2, “Method of producing pharmacologically pure crystals” (Biosyn Arzneimittel GmbH, priority 2010, dated 2014).

Legend:
[1] = Janitzki, solubility studies
[2] = 14° C.

O.O.O.O.O.O.O.O.O=[Se]([O-])[O-].[Na+].[Na+] [Na2SeO3×8 H2O, Na2SeO3×8H2O]
temperature at which the form is stable / exists [1]: up to −8.7 °C

O=[Se]=O [SeO2, selenium dioxide]
solubility [2]: 0.384 kg/l H2O
